This note sets out measurements from the SangsterLogP compilation.

A short description of the first data set: method code SF-AS, from DOI: 10.1021/je200827u. Particulars: pH 5.8.
A word on the logD: it is lipophilicity at a set pH, counting ionised and neutral species. Read a high logD as higher lipophilicity. In turn, `CCSc1nc2ccccc2[nH]1` came in with a logD of 2.67.
On the same count and under the same terms, then `O=[N+]([O-])c1cc(CSc2nc3ccccc3[nH]2)cc([N+](=O)[O-])c1`, with 3.14; and `CC1CCC(=NNC(=O)c2ccncc2)CC1` (stereo unspecified), with 0.74.
On the same count and under the same terms, the figure for `CCSc1nc2ccccc2n1CC` is 3.43; for `CC(C)Sc1nc2ccccc2[nH]1` it is 3.25; for `O=C(NN=C1CCCC1)c1ccncc1` it is 0.22.

Experiment in a further data set: not given
Conditions: not given
Usually logP stands for a log measure of how a compound divides between an organic and an aqueous phase. Read a low logP as lower lipophilicity. In the case of `CC(=O)NNC(=O)c1ccncc1`, the logP is -0.87.
`NNC(=O)c1ccnc(NN)c1` showed a logP of -0.57.
Still for that read-out and setting: then `O=C(NN=C1CCCCC1)c1ccncc1`, with 0.27; and `c1ccc(CSc2nc3ccccc3[nH]2)cc1`, with 3.92; and `c1ccc(C(Sc2nc3ccccc3[nH]2)c2ccccc2)cc1`, with 4.9.
